# Assays:
# Experiment in all cases: relative viability (nuclei count vs DMSO), 5 days (fraction); higher = more cells survive
# FH535 + Palbociclib = compound: CC1=C(C=CC(=C1)[N+](=O)[O-])NS(=O)(=O)C2=C(C=CC(=C2)Cl)Cl [FH535] + CC(=O)c1c(C)c2cnc(Nc3ccc(N4CCNCC4)cn3)nc2n(C2CCCC2)c1=O [Palbociclib] (partner 0.5 µM)
# Procedure, shortened: (§1)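 Lung cancer cell lines were pin-tool dosed in 1536-well plates on the day after seeding, with either a lone drug or a fixed anchor-drug dose plus five library-drug doses (not always all listed) in √10 steps. Nuclei were counted on 4× images after 5 days. Relative viability is the ratio of treated-well to vehicle-well nuclei counts, with each value a median of duplicate plates.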
# FH535 + Dasatinib = compound: CC1=C(C=CC(=C1)[N+](=O)[O-])NS(=O)(=O)C2=C(C=CC(=C2)Cl)Cl [FH535] + Cc1nc(Nc2ncc(C(=O)Nc3c(C)cccc3Cl)s2)cc(N2CCN(CCO)CC2)n1 [Dasatinib] (partner 0.075 µM)
# Procedure, shortened: as §1
# FH535 + AZD7762 = compound: CC1=C(C=CC(=C1)[N+](=O)[O-])NS(=O)(=O)C2=C(C=CC(=C2)Cl)Cl [FH535] + NC(=O)Nc1cc(-c2cccc(F)c2)sc1C(=O)N[C@H]1CCCNC1 [AZD7762] (partner 0.2 µM)
# Procedure, shortened: as §1
# FH535 + Trametinib = compound: CC1=C(C=CC(=C1)[N+](=O)[O-])NS(=O)(=O)C2=C(C=CC(=C2)Cl)Cl [FH535] + CC(=O)Nc1cccc(-n2c(=O)n(C3CC3)c(=O)c3c(Nc4ccc(I)cc4F)n(C)c(=O)c(C)c32)c1 [Trametinib] (partner 0.02 µM)
# Procedure, shortened: as §1
# FH535 + Tozasertib = compound: CC1=C(C=CC(=C1)[N+](=O)[O-])NS(=O)(=O)C2=C(C=CC(=C2)Cl)Cl [FH535] + Cc1cc(Nc2cc(N3CCN(C)CC3)nc(Sc3ccc(NC(=O)C4CC4)cc3)n2)n[nH]1 [Tozasertib] (partner 0.1 µM)
# Procedure, shortened: as §1
Cell Line,relative viability (FH535 + Palbociclib; first compound 0.04 µM),relative viability (FH535 + Palbociclib; first compound 0.1265 µM),relative viability (FH535 + Palbociclib; first compound 0.4 µM),relative viability (FH535 + Palbociclib; first compound 1.265 µM),relative viability (FH535 + Dasatinib; first compound 0.04 µM),relative viability (FH535 + Dasatinib; first compound 0.1265 µM),relative viability (FH535 + Dasatinib; first compound 0.4 µM),relative viability (FH535 + Dasatinib; first compound 1.265 µM),relative viability (FH535 + AZD7762; first compound 0.04 µM),relative viability (FH535 + AZD7762; first compound 0.1265 µM),relative viability (FH535 + AZD7762; first compound 0.4 µM),relative viability (FH535 + AZD7762; first compound 1.265 µM),relative viability (FH535 + Trametinib; first compound 0.04 µM),relative viability (FH535 + Trametinib; first compound 0.1265 µM),relative viability (FH535 + Trametinib; first compound 0.4 µM),relative viability (FH535 + Trametinib; first compound 1.265 µM),relative viability (FH535 + Tozasertib; first compound 0.04 µM),relative viability (FH535 + Tozasertib; first compound 0.1265 µM),relative viability (FH535 + Tozasertib; first compound 0.4 µM),relative viability (FH535 + Tozasertib; first compound 1.265 µM)
HCC-78,0.487,0.512,0.458,0.425,0.33,0.514,0.342,0.427,0.644,0.888,0.618,0.468,0.694,0.713,0.602,0.665,0.462,0.397,0.409,0.414
NCI-H23,0.453,0.552,0.477,0.471,0.769,0.529,0.61,0.731,0.22,0.391,0.275,0.307,0.345,0.448,0.418,0.306,0.281,0.344,0.466,0.301
NCI-H1975,0.627,0.403,0.481,0.474,0.304,0.341,0.263,0.294,0.638,0.793,0.591,0.554,0.329,0.232,0.287,0.329,0.654,0.726,0.602,0.635
CAL-12T,0.344,0.442,0.393,0.25,0.361,0.417,0.291,0.235,0.594,0.643,0.536,0.397,0.336,0.438,0.367,0.347,0.288,0.324,0.243,0.212
NCI-H2126,0.352,0.329,0.363,0.322,0.598,0.573,0.49,0.292,0.973,1.05,0.857,0.874,0.541,0.624,0.535,0.392,0.809,0.823,0.832,0.583
